According to patent US20230174571A1, “METHOD OF TREATING SHIP1-MEDIATED DISEASES USING PELOROL DERIVATIVES” (Zebrapeutics Inc., priority 2020, published 2023):

Experiments:
[1] = tested on: ConA-induced liver injury; assay: ConA-induced liver injury model; type: in vivo, mouse
Description: Concanavalin A (ConA) induced liver injury model is an immune-mediated liver injury model, resembling viral and autoimmune hepatitis in humans. Intravenous delivery of ConA in mice is known to activate T cells, resulting in increased inflammatory cytokines such as TNF-α, IFN-r and IL-6 as well as decreased anti-inflammatory cytokine IL-10. The T cell infiltration into the liver leads to consequences of hepatocyte apoptosis and necrosis, resulting in increased levels of liver enzymes ALT and AST in plasma. (Zhou 2015) Methods: Five groups (n=5 each) of C57 mice were treated with a blank control, compound I-1 alone (10 mg/kg/d), ConA (15 mg/kg), ConA+compound I-1 (3 mg/kg/d) or ConA+compound I-1 (10 mg/kg/d). In each instance, compound I-1 was given 5 days before ConA injection (if applicable) via oral gavage twice a day. One hour after the last drug administration, ConA (15 mg/kg) was delivered intravenously. 12 hours after the ConA injection, orbital blood was taken from the eye and the enzyme biochemistry (plasma) and blood cell type tests were performed by analyzers.

[2] = tested on: CLP-induced sepsis; assay: Caecum Ligation and Puncture (CLP) sepsis model; type: in vivo, mouse; conditions: CLP mice, oral gavage; vs. 20% in CLP group without drug
Description: The mouse CLP model is well-accepted clinically relevant method for anti-sepsis drug testing. The surgical operation included opening of the mouse abdomen, ligation of the cecum and puncture of the ligated cecum with a needle. Rittirsch, 2009 Method was followed to induce Mid to High grade experimental sepsis to achieve 70-100% […] rate over 7 days after CLP operation.
Methods: Five groups (n=10 each) of mice were designed with (1) a blank control, (2) Sham control (abdomen operation was performed but without cecal ligation/puncture), (3) CLP group (operation with cecal ligation/puncture), (4) CLP+compound I-1 (MN100) (3 mg/kg/d), and (5) CLP+compound I-1 (MN100) (10 mg/kg/d). ZPR-MN100 (compound I-1) was given 3 days before CLP operation and continued to 7 days after CLP. ZPR-MN100 was delivered via oral gavage twice a day. […] Mouse condition and survival were recorded every day. Seven days after CLP, the experiment was terminated and survival curves were drawn using GraphPad Prism.

[3] = C57 mice, ConA 15 mg/kg i.v., compound 3 or 10 mg/kg/d oral gavage, 12 hours after ConA
[4] = repeat experiment, 10 mg/kg/d, dexamethasone 0.5 mg/kg/d as positive control

Compound: Cc1cc(O)cc2c1C1(C)CCC3C(C)(C)CCCC3(C)C1C2 (stereo not shown) [Compound I-1]
- BUN [1, 3]: significantly reduced
- TBIL [1, 3]: significantly reduced
- plasma ALT [1, 3]: significantly reduced
- plasma AST [1, 3]: significantly reduced
- ConA-induced ALT level [1, 4]: significantly lowered
- ConA-induced AST level [1, 4]: significantly lowered
- 7-day survival rate [2]: 50%
